Tests used:
[1] = biological target: Heat shock protein HSP 90-alpha (Homo sapiens, UniProt P07900)
Description: Inhibition of recombinant HSP90alpha (unknown origin) incubated for 24 hrs in presence of 1-FITC3 probe by fluorescence polarization assay

[2] = biological target: T1, Heat shock protein 75 kDa, mitochondrial (Homo sapiens, UniProt Q12931); assay: Inhibition of TRAP1 (unknown origin)
T1 sequence (Q12931 whole entry): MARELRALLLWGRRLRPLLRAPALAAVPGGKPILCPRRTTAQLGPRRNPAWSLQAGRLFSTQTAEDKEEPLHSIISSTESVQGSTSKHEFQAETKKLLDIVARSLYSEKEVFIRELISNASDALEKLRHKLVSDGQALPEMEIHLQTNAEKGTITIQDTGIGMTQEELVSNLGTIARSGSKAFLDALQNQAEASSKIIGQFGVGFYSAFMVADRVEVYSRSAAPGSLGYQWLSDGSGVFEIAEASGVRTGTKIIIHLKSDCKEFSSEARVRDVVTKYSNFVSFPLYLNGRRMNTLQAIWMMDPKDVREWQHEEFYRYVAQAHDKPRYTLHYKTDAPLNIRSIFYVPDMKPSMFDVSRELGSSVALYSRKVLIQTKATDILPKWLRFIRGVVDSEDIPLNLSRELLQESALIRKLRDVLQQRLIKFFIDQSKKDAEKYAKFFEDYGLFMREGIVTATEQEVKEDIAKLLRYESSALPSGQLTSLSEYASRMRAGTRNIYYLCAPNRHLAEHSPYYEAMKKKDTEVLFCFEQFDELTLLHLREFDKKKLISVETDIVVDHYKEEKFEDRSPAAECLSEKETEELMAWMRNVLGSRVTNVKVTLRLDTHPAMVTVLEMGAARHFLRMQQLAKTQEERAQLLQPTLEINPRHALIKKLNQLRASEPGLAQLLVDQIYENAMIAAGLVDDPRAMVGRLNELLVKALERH

Endoplasmin = Endoplasmin (Homo sapiens, UniProt P14625); assay: Inhibition of GRP94 (unknown origin)
Sequence of Endoplasmin (P14625 whole entry): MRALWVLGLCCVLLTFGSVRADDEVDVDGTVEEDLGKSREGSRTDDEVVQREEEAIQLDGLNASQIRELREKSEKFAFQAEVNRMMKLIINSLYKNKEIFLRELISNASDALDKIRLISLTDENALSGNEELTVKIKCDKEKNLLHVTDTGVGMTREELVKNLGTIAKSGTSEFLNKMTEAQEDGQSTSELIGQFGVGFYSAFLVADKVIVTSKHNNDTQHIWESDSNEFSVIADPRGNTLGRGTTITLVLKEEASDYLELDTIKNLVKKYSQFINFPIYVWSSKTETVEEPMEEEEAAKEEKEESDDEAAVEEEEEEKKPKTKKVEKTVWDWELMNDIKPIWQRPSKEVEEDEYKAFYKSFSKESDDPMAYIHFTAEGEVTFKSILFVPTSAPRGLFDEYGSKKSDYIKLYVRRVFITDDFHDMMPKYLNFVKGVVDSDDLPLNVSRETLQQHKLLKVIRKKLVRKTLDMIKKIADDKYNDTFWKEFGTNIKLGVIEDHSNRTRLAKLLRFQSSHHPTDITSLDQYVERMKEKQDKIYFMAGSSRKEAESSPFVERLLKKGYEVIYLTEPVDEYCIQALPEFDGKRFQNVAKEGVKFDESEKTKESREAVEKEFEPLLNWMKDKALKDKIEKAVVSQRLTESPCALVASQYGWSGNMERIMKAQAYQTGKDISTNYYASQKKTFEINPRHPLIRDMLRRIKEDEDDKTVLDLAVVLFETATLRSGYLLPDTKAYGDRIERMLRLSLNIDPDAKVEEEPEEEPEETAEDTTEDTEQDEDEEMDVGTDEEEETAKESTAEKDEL

HeLa = assay: Antiproliferative activity against human HeLa cells by MTT assay; format: functional, cell-based
PC-3 = assay: Antiproliferative activity against human PC3 cells by MTT assay; format: functional, cell-based

CC(C)c1cc(-c2nn[nH]c2-c2ccc(S(C)(=O)=O)cc2)c(O)cc1O
IC50 [1]: 166 nM

CC(C)c1cc(-c2nn[nH]c2-c2ccc3c(c2)OCCO3)c(O)cc1O
IC50 [1]: 169 nM

CC(C)c1cc(-c2nnn(CC(N)=O)c2-c2ccc(S(C)(=O)=O)cc2)c(O)cc1O
IC50 [1]: 136 nM

CC(C)c1cc(-c2nnn(CC(=O)O)c2-c2ccc(S(C)(=O)=O)cc2)c(O)cc1O
IC50 [1]: 187 nM

CCOC(=O)Cn1nnc(-c2cc(C(C)C)c(O)cc2O)c1-c1cccc(S(C)(=O)=O)c1
IC50 [2]: 35100 nM
IC50 (Endoplasmin): 96.2 nM
IC50 [1]: 53.1 nM

COC(=O)Cn1nnc(-c2cc(C(C)C)c(O)cc2O)c1-c1ccc2c(c1)OCCO2
IC50 [2]: 11900 nM
IC50 (Endoplasmin): 78 nM
IC50 (HeLa): 500 nM
IC50 (PC-3): 234 nM
IC50 [1]: 47.8 nM

CCOC(=O)Cn1nnc(-c2cc(CC)c(O)cc2O)c1-c1ccc(CN2CCOCC2)cc1
IC50 [1]: 178 nM

CCc1cc(-c2nnn(CC(=O)OC)c2-c2ccc3c(c2)OCCO3)c(O)cc1O
IC50 [1]: 173 nM

COC(=O)Cn1nnc(-c2cc(C(C)C)c(O)cc2O)c1-c1ccc(CN2CCOCC2)cc1
IC50 [2]: 24500 nM
IC50 (Endoplasmin): 197 nM
IC50 [1]: 91 nM

COC(=O)Cn1nnc(-c2cc(C(C)C)c(O)cc2O)c1-c1cccc(NS(C)(=O)=O)c1
IC50 [2]: 24500 nM
IC50 (Endoplasmin): 190 nM
IC50 [1]: 78.3 nM

CCc1cc(-c2nnn(CC(=O)OC)c2-c2cccc(NS(C)(=O)=O)c2)c(O)cc1O
IC50 [1]: 184 nM

COC(=O)Cn1nnc(-c2cc(C(C)C)c(O)cc2O)c1-c1ccc(S(C)(=O)=O)cc1
IC50 [2]: 16000 nM
IC50 (Endoplasmin): 89 nM
IC50 (HeLa): > 2000 nM
IC50 (PC-3): 460 nM
IC50 [1]: 43.3 nM

CCc1cc(-c2nnn(CC(=O)OC)c2-c2cccc(S(C)(=O)=O)c2)c(O)cc1O
IC50 [1]: 154 nM

CCOC(=O)Cn1nnc(-c2cc(C(C)C)c(O)cc2O)c1-c1ccc2c(c1)OCCO2
IC50 [2]: 25400 nM
IC50 (Endoplasmin): 192 nM
IC50 [1]: 60.9 nM

CC(C)c1cc(-c2nnn(Cc3ccccc3)c2-c2ccc(S(C)(=O)=O)cc2)c(O)cc1O
IC50 [2]: 8480 nM
IC50 (Endoplasmin): 78 nM
IC50 (HeLa): 206 nM
IC50 (PC-3): 286 nM
IC50 [1]: 45.7 nM

CC(C)c1cc(-c2nnn(CC(=O)O)c2-c2cccc(S(C)(=O)=O)c2)c(O)cc1O
IC50 [1]: 173 nM

CC(C)c1cc(-c2nnn(CC(N)=O)c2-c2ccc3c(c2)OCCO3)c(O)cc1O
IC50 [1]: 134 nM

CC(C)c1cc(-c2nnn(CC(=O)O)c2-c2cccc(NS(C)(=O)=O)c2)c(O)cc1O
IC50 [1]: 767 nM

CCc1cc(-c2nnn(CC(N)=O)c2-c2ccc(S(C)(=O)=O)cc2)c(O)cc1O
IC50 [1]: 470 nM

CC(C)c1cc(-c2nn[nH]c2-c2ccccc2)c(O)cc1O
IC50 [1]: 296 nM

COC(=O)Cn1nnc(-c2cc(C(C)C)c(O)cc2O)c1-c1ccc(O)c(O)c1
IC50 [1]: 153 nM

CCOC(=O)Cn1nnc(-c2cc(CC)c(O)cc2O)c1-c1ccc(S(C)(=O)=O)cc1
IC50 [1]: 304 nM

COC(=O)Cn1nnc(-c2cc(C(C)C)c(O)cc2O)c1-c1cccc(S(C)(=O)=O)c1
IC50 [2]: 17400 nM
IC50 (Endoplasmin): 54.1 nM
IC50 (HeLa): > 2000 nM
IC50 (PC-3): 569 nM
IC50 [1]: 43.1 nM

CCOC(=O)Cn1nnc(-c2cc(CC)c(O)cc2O)c1-c1cccc(S(C)(=O)=O)c1
IC50 [1]: 161 nM

COC(=O)Cn1nnc(-c2cc(C(C)C)c(O)cc2O)c1-c1ccc(CN2CCCCC2)cc1
IC50 [2]: 6980 nM
IC50 (Endoplasmin): 49.4 nM
IC50 [1]: 57 nM

COC(=O)Cn1nnc(-c2cc(C(C)C)c(O)cc2O)c1-c1ccc(OCCN(C)C)cc1
IC50 [2]: 14100 nM
IC50 (Endoplasmin): 175 nM
IC50 [1]: 71.2 nM

CCOC(=O)Cn1nnc(-c2cc(C(C)C)c(O)cc2O)c1-c1ccc(S(C)(=O)=O)cc1
IC50 [2]: 16000 nM
IC50 (Endoplasmin): 100 nM
IC50 (HeLa): 402 nM
IC50 (PC-3): 324 nM
IC50 [1]: 41.8 nM

CCc1cc(-c2nnn(CC(=O)OC)c2-c2ccc(S(C)(=O)=O)cc2)c(O)cc1O
IC50 [1]: 214 nM

CC(C)c1cc(-c2nnn(CC(=O)O)c2-c2ccc3c(c2)OCCO3)c(O)cc1O
IC50 [1]: 176 nM

CCOC(=O)Cn1nnc(-c2cc(C(C)C)c(O)cc2O)c1-c1cccc(NS(C)(=O)=O)c1
IC50 [2]: 33200 nM
IC50 (Endoplasmin): 209 nM
IC50 [1]: 77 nM

CC(C)c1cc(-c2n[nH]c(=O)n2-c2ccc3c(ccn3C)c2)c(O)cc1O [GANETESPIB]
IC50 (Endoplasmin): 37.7 nM
IC50 (HeLa): 11.7 nM
IC50 (PC-3): 9.3 nM

CC(C)NCCCn1c(Sc2cc3c(cc2I)OCO3)nc2c(N)ncnc21 [PU-H71]
IC50 (HeLa): 226 nM
IC50 (PC-3): 363 nM
